# According to ChEMBL document CHEMBL1201862, “PubChem BioAssay data set” (2004):
#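 48-hour exposure; five concentrations; linearly interpolated endpoints. GI50 marks 50% less growth.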 Calls of active or inactive are those of the source. Cut-off read from the data, not from the text of the source: active = GI50 up to about 1.1 µM and inactive = higher.
# How the values were obtained:
# Assay in all cases: NCI-60 cell line screen, 48 h
# A549 = test system: A549
# OVCAR-8 = test system: OVCAR-8
# HL-60 = test system: HL-60
# UACC-257 = test system: UACC-257
# SK-MEL-2 = test system: SK-MEL-2
# OVCAR-4 = test system: OVCAR-4
# SK-OV-3 = test system: SK-OV-3
# TK-10 = test system: TK-10
# CCRF-CEM = test system: CCRF-CEM
# UO-31 = test system: UO-31
# IGROV-1 = test system: IGROV-1
# HCC 2998 = test system: HCC 2998
# SF-295 = test system: SF-295
# COLO 205 = test system: COLO 205
# Malme-3M = test system: Malme-3M
# RPMI-8226 = test system: RPMI-8226
SMILES,GI50 (A549),GI50 (OVCAR-8),GI50 (HL-60),GI50 (UACC-257),GI50 (SK-MEL-2),GI50 (OVCAR-4),GI50 (SK-OV-3),GI50 (TK-10),GI50 (CCRF-CEM),GI50 (UO-31),GI50 (IGROV-1),GI50 (HCC 2998),GI50 (SF-295),GI50 (COLO 205),GI50 (Malme-3M),GI50 (RPMI-8226)
COc1ccc(O)cc1C(O)c1ccccc1 (stereo not given),> 100 µM (inactive),> 100 µM (inactive),> 100 µM (inactive),> 100 µM (inactive),> 100 µM (inactive),> 100 µM (inactive),> 100 µM (inactive),> 100 µM (inactive),> 100 µM (inactive),> 100 µM (inactive),> 100 µM (inactive),> 100 µM (inactive),> 100 µM (inactive),> 100 µM (inactive),> 100 µM (inactive),
COc1ccc(C2=Nc3ccccc3N=C(SC)C2)cc1,95.1 µM (inactive),59.3 µM (inactive),16.3 µM (inactive),22.1 µM (inactive),21.8 µM (inactive),48.5 µM (inactive),> 100 µM (inactive),40.7 µM (inactive),13.2 µM (inactive),47.3 µM (inactive),> 100 µM (inactive),28.7 µM (inactive),77.3 µM (inactive),51.3 µM (inactive),> 100 µM (inactive),
O=C1Nc2ccccc2N/C1=C\C(=O)c1ccccc1O,> 100 µM (inactive),> 100 µM (inactive),> 100 µM (inactive),> 100 µM (inactive),> 100 µM (inactive),> 100 µM (inactive),> 100 µM (inactive),> 100 µM (inactive),> 100 µM (inactive),> 100 µM (inactive),> 100 µM (inactive),> 100 µM (inactive),> 100 µM (inactive),> 100 µM (inactive),> 100 µM (inactive),> 100 µM (inactive)
O=C(C(=O)c1cc2ccccc2[nH]1)c1cc2ccccc2[nH]1,> 347 µM (inactive),> 224 µM (inactive),195 µM (inactive),> 204 µM (inactive),> 347 µM (inactive),58.3 µM (inactive),> 347 µM (inactive),> 347 µM (inactive),> 247 µM (inactive),> 347 µM (inactive),> 347 µM (inactive),> 347 µM (inactive),> 347 µM (inactive),> 347 µM (inactive),152 µM (inactive),22 µM (inactive)
C[C@]12CCC(=O)C(O)=C1CC[C@@H]1C2CC[C@]2(C)Nc3c(cnn3-c3ccccc3)CC12 (stereo not given in full),> 100 µM (inactive),64.4 µM (inactive),23.8 µM (inactive),39 µM (inactive),> 100 µM (inactive),96.2 µM (inactive),> 100 µM (inactive),> 100 µM (inactive),37.2 µM (inactive),26.3 µM (inactive),> 100 µM (inactive),> 100 µM (inactive),52.7 µM (inactive),,91 µM (inactive),27.4 µM (inactive)
Cc1c(Cl)cccc1NC(=O)C(=O)C1C(=O)CC(C)(C)CC1=O,> 100 µM (inactive),> 100 µM (inactive),> 100 µM (inactive),> 100 µM (inactive),> 100 µM (inactive),> 100 µM (inactive),> 100 µM (inactive),> 100 µM (inactive),> 100 µM (inactive),> 100 µM (inactive),> 100 µM (inactive),> 100 µM (inactive),> 100 µM (inactive),> 100 µM (inactive),> 100 µM (inactive),> 100 µM (inactive)
CC(C)=CC1C[C@H](C2CC=C3C2(C)CCC2[C@@]3(C)C(=O)CC3[C@]2(C)C=CC(=O)[C@]3(C)CO)CO1 (stereo not given in full),20.8 µM (inactive),4.55 µM (inactive),2.92 µM (inactive),13.9 µM (inactive),5.45 µM (inactive),10.7 µM (inactive),16.6 µM (inactive),25.8 µM (inactive),2.96 µM (inactive),18.6 µM (inactive),13.6 µM (inactive),16.3 µM (inactive),13 µM (inactive),14 µM (inactive),11.5 µM (inactive),3.15 µM (inactive)
CC(=O)Nc1ccc(S(=O)(=O)N/N=C/CN2C(=O)c3ccccc3C2=O)cc1,> 100 µM (inactive),> 100 µM (inactive),> 100 µM (inactive),> 100 µM (inactive),> 100 µM (inactive),> 100 µM (inactive),,> 100 µM (inactive),> 100 µM (inactive),> 100 µM (inactive),> 100 µM (inactive),> 100 µM (inactive),> 100 µM (inactive),> 100 µM (inactive),> 100 µM (inactive),> 100 µM (inactive)
O=C(NCCO)c1ccc([N+](=O)[O-])cc1,> 100 µM (inactive),> 100 µM (inactive),> 100 µM (inactive),> 100 µM (inactive),> 100 µM (inactive),,> 100 µM (inactive),> 100 µM (inactive),> 100 µM (inactive),> 100 µM (inactive),> 100 µM (inactive),> 100 µM (inactive),> 100 µM (inactive),> 100 µM (inactive),> 100 µM (inactive),> 100 µM (inactive)
CCN(CC)CCN1CCc2c([nH]c3ccccc23)C1c1cccnc1 (stereo not given),> 100 µM (inactive),> 100 µM (inactive),99.3 µM (inactive),37.5 µM (inactive),,> 100 µM (inactive),> 100 µM (inactive),> 100 µM (inactive),94.6 µM (inactive),37.2 µM (inactive),> 100 µM (inactive),> 100 µM (inactive),> 100 µM (inactive),,,> 100 µM (inactive)
O=c1c2cccc3cccc(c4oc5c6cccc7cccc(c(=O)c5c14)c76)c32,2.06 µM (inactive),11.1 µM (inactive),9.18 µM (inactive),17.1 µM (inactive),15.7 µM (inactive),,28.9 µM (inactive),11.6 µM (inactive),5.47 µM (inactive),13.5 µM (inactive),16.9 µM (inactive),27.2 µM (inactive),17.9 µM (inactive),10.9 µM (inactive),12.5 µM (inactive),12.8 µM (inactive)
COc1cc2c(cc1OC)CC(=O)Nc1cc(OC)c(OC)cc1CC2,63 µM (inactive),53.8 µM (inactive),20.8 µM (inactive),> 53.7 µM (inactive),79.8 µM (inactive),> 53.5 µM (inactive),38.6 µM (inactive),> 77.4 µM (inactive),51.2 µM (inactive),61.9 µM (inactive),> 85.9 µM (inactive),97.1 µM (inactive),30.3 µM (inactive),38.2 µM (inactive),20.8 µM (inactive),2.89 µM (inactive)
COc1ccc(CN[C@H]2CCc3cc(OC)c(OC)c(OC)c3-c3ccc(SC)c(=O)cc32)c(OC)c1OC,0.0459 µM (active),0.0277 µM (active),0.0266 µM (active),0.0811 µM (active),0.0282 µM (active),0.0343 µM (active),0.0293 µM (active),0.0849 µM (active),0.0356 µM (active),0.132 µM (active),0.135 µM (active),0.0202 µM (active),0.0296 µM (active),0.0234 µM (active),0.0484 µM (active),0.0352 µM (active)
C/C(CC(=O)Nc1ccc([N+](=O)[O-])cc1)=N\Nc1ccc([N+](=O)[O-])cc1[N+](=O)[O-],44.7 µM (inactive),> 100 µM (inactive),31.9 µM (inactive),47.1 µM (inactive),> 100 µM (inactive),,> 100 µM (inactive),> 100 µM (inactive),45 µM (inactive),20.6 µM (inactive),71.8 µM (inactive),13.9 µM (inactive),47.5 µM (inactive),89.7 µM (inactive),> 100 µM (inactive),56.4 µM (inactive)
CC(=O)SC(SC(C)=O)SC(C)=O,37.2 µM (inactive),> 100 µM (inactive),51.3 µM (inactive),55 µM (inactive),> 100 µM (inactive),> 100 µM (inactive),> 100 µM (inactive),> 100 µM (inactive),22.5 µM (inactive),> 100 µM (inactive),> 100 µM (inactive),> 100 µM (inactive),,27.3 µM (inactive),> 100 µM (inactive),
CCC(=C(c1ccc(OCc2ccccc2)cc1)c1ccc(OCc2ccccc2)cc1)c1ccc(OC)cc1,> 100 µM (inactive),> 100 µM (inactive),> 100 µM (inactive),,> 100 µM (inactive),> 100 µM (inactive),> 100 µM (inactive),> 100 µM (inactive),> 100 µM (inactive),> 100 µM (inactive),> 100 µM (inactive),> 100 µM (inactive),> 100 µM (inactive),> 100 µM (inactive),> 100 µM (inactive),> 100 µM (inactive)
CC12OC3(O)C4C5CC(C6C5C3C61)C42 (stereo not given),> 100 µM (inactive),> 100 µM (inactive),> 100 µM (inactive),> 100 µM (inactive),> 100 µM (inactive),> 100 µM (inactive),> 100 µM (inactive),> 100 µM (inactive),> 100 µM (inactive),> 100 µM (inactive),,> 100 µM (inactive),,> 100 µM (inactive),> 100 µM (inactive),> 100 µM (inactive)
CCCCCCCCC(O)C#CC(N)=O (stereo not given),14.7 µM (inactive),9.42 µM (inactive),10.8 µM (inactive),13 µM (inactive),13.3 µM (inactive),2.51 µM (inactive),,16 µM (inactive),15.5 µM (inactive),10 µM (inactive),,10.6 µM (inactive),39 µM (inactive),,16.7 µM (inactive),7.48 µM (inactive)
